Values after ≈ are worked out from the molar mass of the structure shown.
Assays:
[1] = at 20° C.; cited from earlier work
[2] = Dissolution in surfactants at 20% w/v on heating in a water bath, then cooling to room temperature; conditions: for Dissolution temp.: temperature at which the mixture cleared
[3] = Dissolution/melting temperature in surfactants by differential scanning calorimetry (DSC); conditions: for effect of surfactants on dissolution/melting temperature: cationic, nonionic and anionic surfactants tested, compared to absence of a surfactant
[4] = 20% w/v in AGM-550, cooled to 20-25° C. after 45 ° C.
[5] = 20% w/v in Ethomeen T/15, cooled to 20-25° C. after 50 ° C.
[6] = 20% w/v in Ethomeen T/15 at 45 ° C.
[7] = 20% w/v in Ethomeen T/15 at 50 ° C.
[8] = 20% w/v in coco quaternary amine 2 EO (Ethoquad C/12)
[9] = 20% w/v in cocoamine 2EO (Ethomeen C/12)

In the case of CCC(Oc1ccc(F)c(C(F)(F)F)c1)C(=O)NCc1ccccc1 (stereo not drawn) [beflubutamid], the “water solubility (Solub.)” value [1] is given as 3.3 µg/mL (≈ 9.29 µM).

For CC(=O)O.CC1CN(C2CCCCCCCCCCC2)CC(C)O1 (stereo not drawn) [dedemorph acetate], the “water solubility (Solub.)” value [1] is given as 736 µg/mL.

In the case of COP(=O)(OC)O/C(=C\Cl)c1ccc(Cl)cc1Cl [dimethylvinphos], the “water solubility (Solub.)” value [1] is listed as 0.13 µg/mL (≈ 0.392 µM).

For CCC(C)c1cc([N+](=O)[O-])cc([N+](=O)[O-])c1OC(=O)OC(C)C (stereo not drawn) [dinobuton], the “water solubility (Solub.)” value [1] is listed as 0.1 µg/mL (≈ 0.306 µM).

For CC1CN(C2CCCCCCCCCCC2)CC(C)O1 (stereo not drawn) [dodemorph], the “water solubility (Solub.)” value [1] is given as under 100 µg/mL.

In the case of CCOCOc1ccc(C(=O)Nc2cccc(Cl)c2Cl)cc1 [etobenzanid], the “water solubility (Solub.)” value [1] is listed as 0.9 µg/mL (≈ 2.65 µM).

In the case of CC(Oc1ccc(Cl)cc1Cl)C(=O)NC(C)(C#N)C(C)C (stereo not drawn) [fenoxanil], the “water solubility (Solub.)” value [1] is listed as 30.7 µg/mL (≈ 93.2 µM).

In the case of CCOC(=O)[C@@H](C)Oc1ccc(Oc2nc3ccc(Cl)cc3o2)cc1 [fenoxaprop-P-ethyl], the “water solubility (Solub.)” value [1] is given as 0.7 µg/mL (≈ 1.93 µM).

In the case of CCOC(=O)C(C)Oc1ccc(Oc2nc3ccc(Cl)cc3o2)cc1 (stereo not drawn) [fenoxaprop-ethyl], the “water solubility (Solub.)” value [1] is given as 0.9 µg/mL (≈ 2.49 µM).

For CCOC(=O)NCCOc1ccc(Oc2ccccc2)cc1 [fenoxycarb], the “water solubility (Solub.)” value [1] is listed as 7.9 µg/mL (≈ 26.2 µM).

For CCCCCOC(=O)COc1cc(N2C(=O)C3=C(CCCC3)C2=O)c(F)cc1Cl [flumiclorac-pentyl], the “water solubility (Solub.)” value [1] is listed as 0.2 µg/mL (≈ 0.472 µM).

In the case of CCOC(=O)C(C)Oc1ccc(Oc2ncc(C(F)(F)F)cc2Cl)cc1 (stereo not drawn) [haloxyfop-ethyl], the “water solubility (Solub.)” value [1] is listed as 0.6 µg/mL (≈ 1.54 µM).

In the case of C=CCOC(Cn1ccnc1)c1ccc(Cl)cc1Cl (stereo not drawn) [imazalil], the “water solubility (Solub.)” value [1] is listed as 0.1 µg/mL (≈ 0.336 µM).

For C#CCOc1ccc(CCNC(=O)C(OCC#C)c2ccc(Cl)cc2)cc1OC (stereo not drawn) [mandipropamid], the “water solubility (Solub.)” value [1] is given as 4.2 µg/mL (≈ 10.2 µM).

For CCOC(=O)C1=NN(c2ccc(Cl)cc2Cl)C(C)(C(=O)OCC)C1 (stereo not drawn) [mefenpyr-diethyl], the “water solubility (Solub.)” value [1] is given as 20 µg/mL (≈ 53.6 µM).

For CO/C=C(/C(=O)OC)c1ccccc1COc1cccc(C(F)(F)F)n1 [picoxystrobin], the “water solubility (Solub.)” value [1] is given as 3.1 µg/mL (≈ 8.44 µM).

In the case of CCOP(=S)(OCC)Oc1ccc(=O)n(-c2ccccc2)n1 [pyridaphenthion], the “water solubility (Solub.)” value [1] is given as 55.2 µg/mL (≈ 162 µM).

In the case of CCOC(=O)[C@@H](C)Oc1ccc(Oc2cnc3cc(Cl)ccc3n2)cc1 [quizalofop-P-ethyl], the “Observation at room temp.” value [2, 4] is reported as “Dissolved”, the Dissolution temp. ([2]; 20% w/v in AGM-550) is reported as 45 °C and the Observation ([2]; 20% w/v in AGM-550 at 45 ° C.) is reported as “Dissolved”. For the same molecule, the “Observation at room temp.” value ([2]; 20% w/v in Armeen APA 9, cooled to 20-25° C. after 50 ° C.) was “Dissolved”, the Dissolution temp. ([2]; 20% w/v in Armeen APA 9) was 50 °C and the Observation ([2]; 20% w/v in Armeen APA 9 at 45 ° C.) was “Not Dissolved”. For the same molecule, the Observation ([2]; 20% w/v in Armeen APA 9 at 50 ° C.) was “Dissolved”, the “Observation at room temp.” value ([2]; 20% w/v in Ethomeen C/12, cooled to 20-25° C. after 55 ° C.) was “Dissolved” and the “Observation at room temp.” value ([2]; 20% w/v in Ethomeen C/12, cooled to 20-25° C. after 65 ° C.) was “Dissolved”. For the same molecule, the Observation ([2]; 20% w/v in Ethomeen C/12 at 50 ° C.) was “Not Dissolved”, the Observation ([2]; 20% w/v in Ethomeen C/12 at 55 ° C.) was “Dissolved” and the Observation ([2]; 20% w/v in Ethomeen C/12 at 65 ° C.) was “Dissolved”. The “Observation at room temp.” value [2, 5] was “Dissolved”, the Dissolution temp. ([2]; 20% w/v in Ethomeen T/15) was 50 °C and the Observation [2, 6] was “Not Dissolved”. For the same molecule, the Observation [2, 7] was “Dissolved”, the “Observation at room temp.” value ([2]; 20% w/v in Ethoquad C/12, cooled to 20-25° C. after 65 ° C.) was “Dissolved” and the Observation ([2]; 20% w/v in Ethoquad C/12 at 55 ° C.) was “Not Dissolved”. For the same molecule, the Observation ([2]; 20% w/v in Ethoquad C/12 at 65 ° C.) was “Dissolved”, the Observation ([2]; 20% w/v in alkylamine oxide at 60 ° C.) was “Dissolved” and the “Observation at room temp.” value ([2]; 20% w/v in alkylamine oxide, cooled to 20-25° C. after 60 ° C.) was “Dissolved”. The Dissolution temp. ([2]; 20% w/v in alkylamine oxide) was 60 °C, the Dissolution temp. [2, 8] was 65 °C and the Dissolution temp. [2, 9] was 55 °C. For the same molecule, the melting/dissolution point ([3]; 40 wt % in C6-9 amidopropyl dimethylamine surfactant (ARMEEN APA 9), FIG. 16) was 63 °C, the melting/dissolution point ([3]; 65 wt % in C6-9 amidopropyl dimethylamine surfactant (ARMEEN APA 9), FIG. 16) was 69 °C and the “effect of surfactants on dissolution/melting temperature” value [3] was “reduced”.

For C=CCNC(=O)c1c([Si](C)(C)C)sc(C)c1C [silithiofam], the “water solubility (Solub.)” value [1] is given as 39.9 µg/mL (≈ 149 µM).

For CC(C)(C)C(O)(CCc1ccc(Cl)cc1)Cn1cncn1 (stereo not drawn) [tebuconazole], the “Observation at room temp.” value [2, 4] was “Dissolved”, the Dissolution temp. ([2]; 20% w/v in AGM-550) was 45 °C and the Observation ([2]; 20% w/v in AGM-550 at 45 ° C.) was “Dissolved”. The “Observation at room temp.” value ([2]; 20% w/v in Armeen APA 9, cooled to 20-25° C. after 40 ° C.) was “Dissolved”, the Dissolution temp. ([2]; 20% w/v in Armeen APA 9) was 40 °C and the Observation ([2]; 20% w/v in Armeen APA 9 at 40 ° C.) was “Dissolved”. For the same molecule, the “Observation at room temp.” value ([2]; 20% w/v in Ethomeen C/12, cooled to 20-25° C. after 45 ° C.) was “Dissolved”, the Observation ([2]; 20% w/v in Ethomeen C/12 at 45 ° C.) was “Dissolved” and the “Observation at room temp.” value [2, 5] was “Dissolved”. For the same molecule, the Dissolution temp. ([2]; 20% w/v in Ethomeen T/15) was 50 °C, the Observation [2, 6] was “Not Dissolved” and the Observation [2, 7] was “Dissolved”. For the same molecule, the “Observation at room temp.” value ([2]; 20% w/v in Ethoquad C/12, cooled to 20-25° C. after 45 ° C.) was “Dissolved”, the Observation ([2]; 20% w/v in Ethoquad C/12 at 45 ° C.) was “Dissolved” and the “Observation at room temp.” value ([2]; 20% w/v in Surfonic L24-9, cooled to 20-25° C. after 50 ° C.) was “Dissolved”. For the same molecule, the Dissolution temp. ([2]; 20% w/v in Surfonic L24-9) was 50 °C, the Observation ([2]; 20% w/v in Surfonic L24-9 at 45 ° C.) was “Not Dissolved” and the Observation ([2]; 20% w/v in Surfonic L24-9 at 50 ° C.) was “Dissolved”. The Observation ([2]; 20% w/v in alkylamine oxide at 45 ° C.) was “Dissolved”, the “Observation at room temp.” value ([2]; 20% w/v in alkylamine oxide, cooled to 20-25° C. after 45 ° C.) was “Dissolved” and the Dissolution temp. ([2]; 20% w/v in alkylamine oxide) was 45 °C. The Dissolution temp. [2, 8] was 45 °C, the Dissolution temp. [2, 9] was 45 °C and the melting/dissolution point ([3]; 40 wt % in ethoxylated cocoamine (2EO) surfactant, FIG. 14) was 71 °C. The melting/dissolution point ([3]; 65 wt % in ethoxylated cocoamine (2EO) surfactant, FIG. 14) was 91 °C, the “dissolution/melting point, rank among surfactants tested” value ([3]; amidopropylamine surfactant) was “lowest” and the “effect of surfactants on dissolution/melting temperature” value [3] was “reduced”.

In the case of COP(=S)(OC)Oc1c(Cl)cc(C)cc1Cl [tolclofos-methyl], the “water solubility (Solub.)” value [1] is listed as 1.1 µg/mL (≈ 3.65 µM).

In the case of Cc1ccc(N(SC(F)(Cl)Cl)S(=O)(=O)N(C)C)cc1 [tolyfluanid], the “water solubility (Solub.)” value [1] is listed as 0.9 µg/mL (≈ 2.59 µM).

For CC(C)(C)C(=O)C(Oc1ccc(Cl)cc1)n1cncn1 (stereo not drawn) [triadimefon], the “water solubility (Solub.)” value [1] is listed as 64 µg/mL (≈ 218 µM).

In the case of anilofos, the “water solubility (Solub.)” value [1] is given as 13.6 µg/mL.

In the case of beta-cypermemethrin, the “water solubility (Solub.)” value [1] is given as 51.5 µg/mL.

For butafenamid, the “water solubility (Solub.)” value [1] is given as 3.3 µg/mL.

From patent US11700853B2, “Plant health compositions comprising a water-soluble pesticide and a water-insoluble agrochemical” (priority 2010, dated 2023)
